Results reported in paper PMC4314399 (Cell calcium, 2014).
Where two headings read alike, the source gives them in different places.

Legend:
Orai1 [1] = biological target: T1, Orai1 (Homo sapiens, UniProt Q13586+Q96D31); experiment: fura-2 Ca2+ add-back; type: cell-based
Orai1 [2] = biological target: T1, Orai1; experiment: fura-2 Ca2+ add-back; type: cell-based; remark: listed apart in the source

T1 sequence (Q96D31 whole entry): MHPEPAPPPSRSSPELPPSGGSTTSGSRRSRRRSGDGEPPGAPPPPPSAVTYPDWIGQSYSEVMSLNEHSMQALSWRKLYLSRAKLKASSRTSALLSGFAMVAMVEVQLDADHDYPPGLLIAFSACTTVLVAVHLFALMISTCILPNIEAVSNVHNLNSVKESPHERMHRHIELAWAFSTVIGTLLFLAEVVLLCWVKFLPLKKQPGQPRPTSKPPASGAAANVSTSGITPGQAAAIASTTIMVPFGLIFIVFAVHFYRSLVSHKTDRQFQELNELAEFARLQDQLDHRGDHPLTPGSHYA
T1 sequence (Q13586 23-685): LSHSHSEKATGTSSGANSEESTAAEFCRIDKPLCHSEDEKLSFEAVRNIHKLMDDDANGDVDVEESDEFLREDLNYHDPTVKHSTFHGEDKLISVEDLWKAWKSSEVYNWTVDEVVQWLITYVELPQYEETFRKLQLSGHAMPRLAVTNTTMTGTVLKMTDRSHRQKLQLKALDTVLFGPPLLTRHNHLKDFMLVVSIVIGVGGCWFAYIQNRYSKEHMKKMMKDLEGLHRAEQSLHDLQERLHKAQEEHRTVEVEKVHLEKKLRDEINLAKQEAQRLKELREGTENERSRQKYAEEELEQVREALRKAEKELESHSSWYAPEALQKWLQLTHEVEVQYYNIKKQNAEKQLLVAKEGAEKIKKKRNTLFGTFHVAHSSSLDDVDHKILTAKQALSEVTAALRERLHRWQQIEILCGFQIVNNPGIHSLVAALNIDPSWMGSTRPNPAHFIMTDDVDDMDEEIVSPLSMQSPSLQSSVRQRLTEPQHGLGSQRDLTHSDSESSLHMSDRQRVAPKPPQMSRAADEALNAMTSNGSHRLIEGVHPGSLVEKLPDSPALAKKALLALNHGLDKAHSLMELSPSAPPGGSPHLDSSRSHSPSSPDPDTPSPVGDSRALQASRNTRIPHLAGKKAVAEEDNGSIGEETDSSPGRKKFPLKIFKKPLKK

| Substance | IC50 (Orai1 [1]) [nM] | IC50 (Orai1 [2]) [nM] |
| --- | --- | --- |
| DPB162-AE | ~200 | – |
| DPB163-AE | – | ~600 |
